This experiment deals with T1, BdorOR13a/BdorOrco (Bactrocera dorsalis, UniProt A0A0G2UKH1).
T1 construct: gene OR13a; full-length 441-residue OR co-expressed with BdorOrco; pcDNA3.1(+) with mCherry reporter in HEK 293 cells (also pT7Ts in Xenopus oocytes); with Odorant receptor coreceptor
T1 sequence (A0A0G2UKH1 1-441): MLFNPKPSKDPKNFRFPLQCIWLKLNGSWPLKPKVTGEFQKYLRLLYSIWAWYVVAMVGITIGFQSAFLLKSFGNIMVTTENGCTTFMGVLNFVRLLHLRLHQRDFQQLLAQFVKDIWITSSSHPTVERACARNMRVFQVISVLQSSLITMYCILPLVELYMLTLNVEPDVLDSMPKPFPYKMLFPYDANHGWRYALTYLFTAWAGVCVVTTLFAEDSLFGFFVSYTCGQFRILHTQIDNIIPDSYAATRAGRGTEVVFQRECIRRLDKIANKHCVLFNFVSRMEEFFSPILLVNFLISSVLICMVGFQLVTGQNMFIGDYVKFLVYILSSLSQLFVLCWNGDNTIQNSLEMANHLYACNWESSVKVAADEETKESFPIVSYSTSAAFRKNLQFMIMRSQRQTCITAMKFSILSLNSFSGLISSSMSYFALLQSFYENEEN
T1 sequence (B2Z9Z0 1-473 partner): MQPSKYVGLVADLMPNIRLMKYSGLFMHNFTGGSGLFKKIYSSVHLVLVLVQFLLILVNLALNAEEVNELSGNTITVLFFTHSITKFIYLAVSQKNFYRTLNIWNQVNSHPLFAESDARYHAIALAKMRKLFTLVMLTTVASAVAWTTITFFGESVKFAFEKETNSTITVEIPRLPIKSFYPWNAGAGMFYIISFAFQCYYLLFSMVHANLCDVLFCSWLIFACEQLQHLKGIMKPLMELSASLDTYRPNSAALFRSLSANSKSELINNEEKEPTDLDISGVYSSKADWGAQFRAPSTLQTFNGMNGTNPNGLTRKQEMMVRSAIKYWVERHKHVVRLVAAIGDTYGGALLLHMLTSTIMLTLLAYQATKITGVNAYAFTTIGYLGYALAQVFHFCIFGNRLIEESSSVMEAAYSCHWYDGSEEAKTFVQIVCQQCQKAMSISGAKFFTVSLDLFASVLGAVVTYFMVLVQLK
The experiment is described as follows: calcium imaging (Fluo-4 AM), HEK […] cells. The format is cell-based.

For orientation: EC50 means the concentration that produces a half-maximal response.

For the compound `C=CC(O)CCCCC` (stereo not shown) [1-octen-3-ol], the EC50 stood at 11.3 µM.

These data come from publication PMC9932091, “Two odorant receptors regulate 1-octen-3-ol induced oviposition behavior in the oriental fruit fly” (Communications Biology, 2023).
